The source of these data is US10745382B2 (BRISTOL-MYERS SQUIBB COMPANY, priority 2015, dated 2020).

T1 sequence (Q9NZQ7 with tags, fused parts or gaps): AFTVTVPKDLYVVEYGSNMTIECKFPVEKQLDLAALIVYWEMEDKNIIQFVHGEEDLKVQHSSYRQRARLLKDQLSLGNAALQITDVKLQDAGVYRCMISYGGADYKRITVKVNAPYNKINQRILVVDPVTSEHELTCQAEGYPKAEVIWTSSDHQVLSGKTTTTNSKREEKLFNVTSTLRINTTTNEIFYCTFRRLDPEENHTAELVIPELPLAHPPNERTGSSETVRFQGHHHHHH

The first assay addresses T1, PD-1/PD-L1 (Homo sapiens, UniProt Q9NZQ7).
T1 construct: made in house; host or cells: HEK293T
The assay is described as follows: PD-1/PD-L1 Homogenous Time-Resolved Fluorescence (HTRF) binding assay. Particulars: PD-L1-His 10 nM, PD-1-Ig 20 nM; numeric IC50; read-out: Range or IC50. Summed up:
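Compounds are tested for blocking the PD-1/PD-L1 interaction in dPBS supplemented with 0.1% BSA and 0.05% (v/v) Tween-20. Tagged proteins are detected with Eu-cryptate anti-Ig and APC anti-His at 1 and 20 nM final.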
As usually defined, the IC50 is the point on the concentration scale where inhibition reaches its midpoint. For `Cc1c(COc2cc(OCCCN3CC[C@@H](O)C3)c(CN3CCCC[C@H]3C(=O)O)cc2Cl)cccc1-c1cccc(OCCCN2CC[C@@H](O)C2)c1C` [Example 1529, (S)-1-(5-chloro-2-(3-((R)-3-hydroxypyrrolidin-1-yl)propoxy)-4-((3′-(3-((R)-3-hydroxypyrrolidin-1-yl)propoxy)-2,2′-dimethyl-[1,1′-biphenyl]-3-yl)methoxy)benzyl)piperidine-2-carboxylic Acid], the IC50 came to 2 nM.

Still in this assay, the particulars now being: PD-L1-His 10 nM, PD-1-Ig 20 nM; value given as range class; read-out: Range or IC50.
On to `Cc1c(COc2cc(OCc3cncc(C#N)c3)c(CN[C@@](C)(CO)C(=O)O)cc2Cl)cccc1-c1cccc(OCCCN2CCC(O)(CC(=O)O)C2)c1C` (stereo partly drawn) [Example 1517, (2S)-2-((4-((3′-(3-(3-(carboxymethyl)-3-hydroxypyrrolidin-1-yl)propoxy)-2,2′-dimethyl-[1,1′-biphenyl]-3-yl)methoxy)-5-chloro-2-((5-cyanopyridin-3-yl)methoxy)benzyl)amino)-3-hydroxy-2-methylpropanoic acid], for which the IC50 lay within 0.21 to 10 nM.

`Cc1c(COc2cc(OCc3cncc(C(N)=O)c3)c(CN[C@@](C)(CO)C(=O)O)cc2Cl)cccc1-c1cccc(OCCCN2CCC(O)(CC(=O)O)C2)c1Cl` (stereo partly drawn) [Example 1518, (2S)-2-((2-((5-carbamoylpyridin-3-yl)methoxy)-4-((3′-(3-(3-(carboxymethyl)-3-hydroxypyrrolidin-1-yl)propoxy)-2′-chloro-2-methyl-[1,1′-biphenyl]-3-yl)methoxy)-5-chlorobenzyl)amino)-3-hydroxy-2-methylpropanoic acid]: the IC50 fell in the range of 10 to 100 nM.

For the compound `Cc1c(COc2cc(OCc3cncc(C#N)c3)c(CN3CCCC[C@H]3C(=O)O)cc2Cl)cccc1-c1cccc(OCCCN2CC[C@@H](O)C2)c1F` [Example 1520, (S)-1-(5-chloro-2-((5-cyanopyridin-3-yl)methoxy)-4-((2′-fluoro-3′-(3-((R)-3-hydroxypyrrolidin-1-yl)propoxy)-2-methyl-[1,1′-biphenyl]-3-yl)methoxy)benzyl)piperidine-2-carboxylic acid], the concentration for half-maximal inhibition (IC50) is 0.21 to 10 nM.

Consider `Cc1c(COc2cc(OCc3cncc(C#N)c3)c(CN[C@@](C)(CO)C(=O)O)cc2Cl)cccc1-c1cccc(O[C@@H](C)CCN2CC[C@@H](O)C2)c1Cl` [Example 1521, (S)-2-((5-chloro-4-((2′-chloro-3′-(((S)-4-((R)-3-hydroxypyrrolidin-1-yl)butan-2-yl)oxy)-2-methyl-[1,1′-biphenyl]-3-yl)methoxy)-2-((5-cyanopyridin-3-yl)methoxy)benzyl)amino)-3-hydroxy-2-methylpropanoic acid], for which the IC50 lay in the range of 0.21 to 10 nM.

For `Cc1c(COc2cc(OCc3cncc(C#N)c3)c(CN3CCCC[C@H]3C(=O)O)cc2Cl)cccc1-c1cccc(O[C@@H](C)CCN2CC[C@@H](O)C2)c1Cl` [Example 1522, (S)-1-(5-chloro-4-((2′-chloro-3′-(((S)-4-((R)-3-hydroxypyrrolidin-1-yl)butan-2-yl)oxy)-2-methyl-[1,1′-biphenyl]-3-yl)methoxy)-2-((5-cyanopyridin-3-yl)methoxy)benzyl)piperidine-2-carboxylic acid], the half-maximal inhibitory concentration (IC50) is 0.21 to 10 nM.

In the case of `Cc1c(COc2cc(OCc3cncc(C#N)c3)c(CN3CCCC[C@H]3C(=O)O)cc2Cl)cccc1-c1cccc(O[C@H](C)CCN2CC[C@@H](O)C2)c1Cl` [Example 1523], the half-inhibitory concentration (IC50) lay in the range of 0.21 to 10 nM.

`Cc1c(COc2cc(OCc3cncc(C#N)c3)c(CN[C@@](C)(CO)C(=O)O)cc2Cl)cccc1-c1cccc(O[C@H](C)CCN2CC[C@@H](O)C2)c1Cl` [Example 1524]: the IC50 was in the range of 0.21 to 10 nM.

In the case of `Cc1c(COc2cc(OCc3cncc(C#N)c3)c(CN[C@@](C)(CO)C(=O)O)cc2Cl)cccc1-c1cccc(O[C@H](C)CCN2CC[C@@H](O)C2)c1C` [Example 1525, (S)-2-((5-chloro-2-((5-cyanopyridin-3-yl)methoxy)-4-((3′-(((R)-4-((R)-3-hydroxypyrrolidin-1-yl)butan-2-yl)oxy)-2,2′-dimethyl-[1,1′-biphenyl]-3-yl)methoxy)benzyl)amino)-3-hydroxy-2-methylpropanoic acid], the IC50 lay in the range of 0.21 to 10 nM.

Regarding `Cc1c(COc2cc(OCc3cncc(C#N)c3)c(CN3CCCC[C@H]3C(=O)O)cc2Cl)cccc1-c1cccc(O[C@H](C)CCN2CC[C@@H](O)C2)c1C` [Example 1526, (S)-1-(5-chloro-2-((5-cyanopyridin-3-yl)methoxy)-4-((3′-(((R)-4-((R)-3-hydroxypyrrolidin-1-yl)butan-2-yl)oxy)-2,2′-dimethyl-[1,1′-biphenyl]-3-yl)methoxy)benzyl)piperidine-2-carboxylic acid], the IC50 was 0.21 to 10 nM.

For the compound `Cc1ccc(OCCCN2CC[C@@H](O)C2)cc1-c1cccc(COc2cc(OCc3cncc(C#N)c3)c(CN3CCCC[C@H]3C(=O)O)cc2Cl)c1C` [Example 1528, (S)-1-(5-chloro-2-((5-cyanopyridin-3-yl)methoxy)-4-((5′-(3-((R)-3-hydroxypyrrolidin-1-yl)propoxy)-2,2′-dimethyl-[1,1′-biphenyl]-3-yl)methoxy)benzyl)piperidine-2-carboxylic acid], the 50% inhibitory concentration (IC50) was 0.21 to 10 nM.

Consider `Cc1c(COc2cc(OCCCN3CC[C@@H](O)C3)c(CN[C@@H](CO)C(=O)O)cc2Cl)cccc1-c1cccc(OCCCN2CC[C@@H](O)C2)c1C` [Example 1530, (5-chloro-2-(3-((R)-3-hydroxypyrrolidin-1-yl)propoxy)-4-((3′-(3-((R)-3-hydroxypyrrolidin-1-yl)propoxy)-2,2′-dimethyl-[1,1′-biphenyl]-3-yl)methoxy)benzyl)-L-serine], for which the IC50 was in the range of 0.21 to 10 nM.

For `Cc1c(COc2cc(OCCCN3CC[C@@H](O)C3)c(CN[C@](C)(CO)C(=O)O)cc2Cl)cccc1-c1cccc(OCCCN2CC[C@@H](O)C2)c1C` [Example 1531, (R)-2-((5-chloro-2-(3-((R)-3-hydroxypyrrolidin-1-yl)propoxy)-4-((3′-(3-((R)-3-hydroxypyrrolidin-1-yl)propoxy)-2,2′-dimethyl-[1,1′-biphenyl]-3-yl)methoxy)benzyl)amino)-3-hydroxy-2-methylpropanoic Acid], the IC50 lay in the range of 0.21 to 10 nM.

`Cc1c(COc2cc(OCc3cncc(S(C)(=O)=O)c3)c(CNC(C)(CO)CO)cc2Cl)cccc1-c1cccc(OCCCN2CC[C@@H](O)C2)c1Cl` [Example 1532, (R)-2-((5-chloro-4-((2′-chloro-3′-(3-(3-hydroxypyrrolidin-1-yl)propoxy)-2-methyl-[1,1′-biphenyl]-3-yl)methoxy)-2-((5-(methylsulfonyl)pyridin-3-yl)methoxy)benzyl)amino)-2-methylpropane-1,3-diol]: the concentration for half-maximal inhibition (IC50) was in the range of 0.21 to 10 nM.

For the compound `Cc1c(COc2cc(OCc3cncc(S(C)(=O)=O)c3)c(CNC(C)(CO)CO)cc2Cl)cccc1-c1cccc(OCCCN2CC[C@@H](O)C2)c1C` [Example 1533, (R)-2-((5-chloro-4-((3′-(3-(3-hydroxypyrrolidin-1-yl)propoxy)-2,2′-dimethyl-[1,1′-biphenyl]-3-yl)methoxy)-2-((5-(methylsulfonyl)pyridin-3-yl)methoxy)benzyl)amino)-2-methylpropane-1,3-diol], the IC50 lay within 0.21 to 10 nM.

Consider `Cc1c(COc2cc(OCc3cncc(C#N)c3)c(CN3CCC[C@@H]3CO)cc2Cl)cccc1-c1cccc(OCCCN2CCC[C@@H]2CO)c1F` [Example 1534, 5-((4-chloro-5-((2′-fluoro-3′-(3-((R)-2-(hydroxymethyl)pyrrolidin-1-yl)propoxy)-2-methyl-[1,1′-biphenyl]-3-yl)methoxy)-2-(((R)-2-(hydroxymethyl)pyrrolidin-1-yl)methyl)phenoxy)methyl)nicotinonitrile], for which the half-maximal inhibitory concentration (IC50) was in the range of 0.21 to 10 nM.

Consider `Cc1c(COc2cc(OCc3cncc(C#N)c3)c(CN3CC[C@@H](O)C3)cc2Cl)cccc1-c1cccc(OCCCN2CC[C@@H](O)C2)c1Cl` [Example 2001, 5-((4-chloro-5-((2′-chloro-3′-(3-((R)-3-hydroxypyrrolidin-1-yl)propoxy)-2-methyl-[1,1′-biphenyl]-3-yl)methoxy)-2-(((R)-3-hydroxypyrrolidin-1-yl)methyl)phenoxy)methyl)nicotinonitrile], for which the IC50 lay in the range of 0.21 to 10 nM.

Take `Cc1c(COc2cc(OCc3cncc(C#N)c3)c(CO)cc2Cl)cccc1-c1cccc(OCCCN2CC[C@@H](O)C2)c1Cl` [Example 2002, (R)-5-((4-chloro-5-((2′-chloro-3′-(3-(3-hydroxypyrrolidin-1-yl)propoxy)-2-methyl-[1,1′-biphenyl]-3-yl)methoxy)-2-(hydroxymethyl)phenoxy)methyl)nicotinonitrile]: the 50% inhibitory concentration (IC50) lay in the range of 0.21 to 10 nM.

`Cc1c(COc2cc(OCc3cncc(C#N)c3)c(CNC[C@H](O)CO)cc2Cl)cccc1-c1cccc(OCCCNC[C@H](O)CO)c1Cl` [Example 2003, 5-((4-chloro-5-((2′-chloro-3′-(3-(((S)-2,3-dihydroxypropyl)amino)propoxy)-2-methyl-[1,1′-biphenyl]-3-yl)methoxy)-2-((((S)-2,3-dihydroxypropyl)amino)methyl)phenoxy)methyl)nicotinonitrile]: the IC50 fell in the range of 0.21 to 10 nM.

On to `Cc1c(COc2cc(OCc3cncc(C#N)c3)c(CN[C@@H](CO)C(=O)O)cc2Cl)cccc1-c1cccc(OCCCNC[C@H](O)CO)c1Cl` [Example 2004, (S)-2-((5-chloro-4-((2′-chloro-3′-(3-(((S)-2,3-dihydroxypropyl)amino)propoxy)-2-methyl-[1,1′-biphenyl]-3-yl)methoxy)-2-((5-cyanopyridin-3-yl)methoxy)benzyl)amino)-3-hydroxypropanoic Acid], for which the IC50 lay in the range of 0.21 to 10 nM.

For `Cc1c(COc2cc(OCc3cncc(C#N)c3)c(CO)cc2Cl)cccc1-c1cccc(OCCCNC[C@H](O)CO)c1Cl` [Example 2005, (S)-5-((4-chloro-5-((2′-chloro-3′-(3-((2,3-dihydroxypropyl)amino)propoxy)-2-methyl-[1,1′-biphenyl]-3-yl)methoxy)-2-(hydroxymethyl)phenoxy)methyl)nicotinonitrile], the half-inhibitory concentration (IC50) was in the range of 0.21 to 10 nM.
